Measured values: EP0031653A1, “N-Substituted alpha-amino acids, processes for making them and pharmaceutical compositions containing them” (BEECHAM GROUP PLC, priority 1979, dated 1981)
Like-named read-outs stand apart in the source and are kept apart here.

Key:
normolipidaemic rats [1] = assay: Effects on serum lipids in vivo, rat Model A (Oxoid diet); parameters: species or system Male Sprague-Dawley rats; conditions: po, 168 h, compound at 0.1% of the diet (approximately 100 mg/kg/day), 7 days
Description: (§1) The compounds of the Examples above were tested for their effects on serum lipids in vivo using normolipidaemic rats.
(§2) Male Sprague-Dawley rats, 80-100 g, were randomised into groups of 8 after 5-7 days of feeding on the diet. The compounds were fed to the rats at a concentration of 0.1% of the powered diet (i.e. approximately 100 mg/kg/day), unless otherwise stated. The control groups were fed only the diet. At the end of the experiment, i.e. after 7 days, the rats were killed and their individual total serum cholesterol and triglyceride measured in mg/100 ml using a Technicon Autoanalyser. The high density lipoprotein (HDL)-cholesterol fraction, which was obtained from the serum by precipitation with heparin-manganous chloride, was only measured on "pooled" samples from each group.
(§3) The results are shown in Table 1 below. • ^+ Model A used an Oxoid diet. • Model B used a semi-synthetic diet rich in sucrose and cholesterol

normolipidaemic rats [2] = assay: Effects on serum lipids in vivo, rat Model B (semi-synthetic diet rich in sucrose and cholesterol); parameters: species or system Male Sprague-Dawley rats; conditions: compound at 0.1% of the diet (approximately 100 mg/kg/day), 7 days, * = significant at p<0.05
Description: as §1, §2, §3

[3] = * = significant at p<0.05, read-out: Percentage difference from control values in Total Serum cholesterol
[4] = * = significant at p<0.05, read-out: Percentage difference from control values in Total Serum triglyceride

| SMILES | change in vivo at 100 mg/kg/day (normolipidaemic rats [1]; [3]) [%] | change in vivo at 100 mg/kg/day (normolipidaemic rats [1]; [4]) [%] | Percentage difference from control values in Total Serum cholesterol (normolipidaemic rats [2]) | Percentage difference from control values in Total Serum triglyceride (normolipidaemic rats [2]) |
| --- | --- | --- | --- | --- |
| O=C(O)C(Cc1c[nH]c2ccccc12)NCc1ccc(Cl)cc1 (racemic) [Example 14, N-4-Chlorobenzyl-DL-tryptophan] | 36 |  |  |  |
| O=C(O)[C@H](Cc1ccc(O)cc1)NCc1ccc(Cl)cc1 [Example 17, N-4-chlorobenzyl-tyrosine] |  | -18 |  |  |
| O=C(O)C(CCc1ccccc1)NCc1ccc(Cl)cc1 (racemic) [Example 15, (DL)-2-(4-Chlorobenzylamino)-4-phenylbutyric acid] | 68 | -11 |  |  |
| O=C(O)[C@H](Cc1ccccc1)NCc1ccc(Cl)cc1 [Example 2, N-(4-chlorobenzyl)-L-phenylalanine] | 31 | -40 | +14% | -44^* % |
| O=C(O)C(Cc1ccncc1)NCc1ccc(Cl)cc1 (racemic) [Example 12, DL-2-(4-Chlorobenzylamino)-3-(4-pyridyl)-propionic acid] |  |  | -10% | -10% |
| O=C(O)[C@H](Cc1ccccc1)NCc1ccc(Br)cc1 [Example 4, N-(4-Bromobenzyl)-L-phenylalanine] | 43 | -40 |  |  |
| O=C(O)C(Cc1ccc(Cl)cc1)NCc1ccc(Cl)cc1 (racemic) [Example 7, N-(4-Chlorobenzyl)-DL-4-chlorophenylalanine] | 56 | -50 |  |  |
| O=C(O)[C@H](Cc1ccccc1)NCc1cccc(C(F)(F)F)c1 [Example 5, N-(3-Trifluoromethylbenzyl)-L-phenylalanine] | 47 | -41 |  |  |
| O=C(O)C(Cc1ccccn1)NCc1ccc(Cl)cc1 (racemic) [Example 11, DL-2-(4-Chlorobenzylamino)-3-(2-pyridyl)-propionic acid] |  |  | +27^* % | +27% |
| O=C(O)[C@@H](Cc1ccccc1)NCc1ccc(Cl)cc1 [Example 3, N-(4-Chlorobenzyl)-D-phenylalanine] |  |  | +49^* % | -67^* % |
| COC(=O)[C@H](Cc1ccccc1)NCc1ccc(Cl)cc1 [Example 18, N-(4-chlorobenzyl)-L-phenylalanine methyl ester] | 25 | -43 |  |  |
| O=C(O)[C@H](CSCc1ccccc1)NCc1ccc(Cl)cc1 [Example 8, N-(4-Chlorobenzyl)-S-benzyl-L-cysteine] | 52 | -35 |  |  |
| O=C(O)[C@H](Cc1ccccc1)NCc1ccc2c(c1)OCO2 [Example 1, N-(3,4-methylenedioxybenzyl)-L-phenylalanine] |  | -31 |  |  |
